{
  "source": "patent US8163921B2",
  "about": "“Hepatitis C virus inhibitors” (Bristol-Myers Squibb Company, priority 2008, dated 2012)",
  "key": {"[1]": {"target": "T1, HCV NS3/4A protease complex, BMS strain (UniProt P27958, C1454S/C1711G, species not given/STRAIN_BMS)", "T1 construct": "other: BMS strain; fused on or other part: three-lysine solubilising tail at the C-terminus of NS4A; purified on Ni-NTA from the pET21b vector (His tag implied)", "test": "FRET peptide assay to monitor HCV NS3/4A proteolytic activity (BMS strain)", "type": "biochemical, HCV genotype 1a", "conditions": "read-out: IC50 against the NS3/4A BMS strain in the enzyme assay; BMS strain", "outline": "(§1)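 Recombinant HCV NS3/4A protease complex (BMS strain, genotype 1a), 2-3 nM final (300 pM with 50 μg/ml BSA for very potent compounds), incubated with RET S1 EDANS/DABCYL depsipeptide substrate at 2 μM final. Buffer: 50 mM HEPES pH 7.5, 0.15 M NaCl, 0.1% Triton, 15% glycerol, 10 mM βME. Cleavage followed in real time by fluorescence.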"}, "[2]": {"target": "T2, HCV NS3/4A protease complex, BMS strain (UniProt P27958, C1454S/C1711G, species not given)", "T2 construct": "other: HCV NS3/4A enzyme assay; class symbols; numeric values; fused on or other part: three-lysine solubilising tail at the C-terminus of NS4A; purified on Ni-NTA from the pET21b vector (His tag implied)", "test": "FRET peptide assay to monitor HCV NS3/4A proteolytic activity (BMS strain)", "type": "biochemical, HCV genotype 1a", "conditions": "read-out: IC50 Range; HCV NS3/4A enzyme assay; class symbols", "outline": "as §1"}, "human liver cathepsin B": {"target": "T3, human liver cathepsin B (Homo sapiens, UniProt P07858)", "T3 construct": "purchased Sigma, EMDbiosciences; host or cells: human liver (as named)", "test": "Specificity assay, cathepsin B", "type": "biochemical", "conditions": "read-out: Cathepsin B activity in the specificity assays", "method": "The specificities of compounds of the present disclosure were determined against a variety of serine proteases: human neutrophil elastase (HNE), porcine pancreatic elastase (PPE) and human pancreatic chymotrypsin and one cysteine protease: human liver cathepsin B. In all cases a 96-well plate format protocol using a fluorometric Amino-Methyl-Coumarin (AMC) substrate specific for each enzyme was used as described previously (PCT Patent Application No. WO 00/09543) with some modifications to the serine protease assays. All enzymes were purchased from Sigma, EMDbiosciences while the substrates were from Bachem, Sigma and EMDbiosciences.\nCompound concentrations varied from 100 to 0.4 μM depending on their potency. The enzyme assays were each initiated by addition of substrate to enzyme-inhibitor pre-incubated for 10 min at room temperature and hydrolysis to 15% conversion as measured on cytofluor.\n100 mM NaOAC (Sodium Acetate) pH 5.5, 3% DMSO, 1 mM TCEP (Tris(2-carboxyethyl)phosphine hydrochloride), 5 nM Cathepsin B (enzyme stock activated in buffer containing 20 mM TCEP before use), and 2 μM Z-FR-AMC diluted in H2O.\nThe percentage of inhibition was calculated using the formula: [1−((UVinh−UVblank)/(UVctl−UVblank))]×100\nA non-linear curve fit was applied to the inhibition-concentration data, and the 50% effective concentration (IC50) was calculated by the use of Excel XLfit software."}},
  "data": [
    {"compound": "C=C[C@@H]1C[C@]1(NC(=O)[C@@H]1C[C@@H](Oc2ncc(OC)c3ccc(Cl)cc23)CN1C(=O)[C@@H](Nc1nc(-c2cccc(OC(F)(F)F)c2)cs1)C(C)(C)C)C(=O)NS(=O)(=O)C1CC1", "note": "[Example 68]", "values": [
      {"measurement": "IC50", "setting": "[1]", "result": 4, "unit": "nM"},
      {"measurement": "IC50", "setting": "[2]", "result": "1 to 20", "unit": "nM"},
      {"measurement": "IC50", "setting": "human liver cathepsin B", "result": 15000, "unit": "nM"}
    ]}
  ]
}
